Laboratory results as given in PubChem BioAssay AID2060610 (Molecular Pharmacology Branch, DTP, NCI, 2025).
Blank lines part the entries; values can stand above or below the compound they belong to.

System: 616215-338-R-J1-PDC complex spheroids, viability % test/control
Experiment: Anticancer human tumor 616215-338-R-J1-PDC patient-derived colon adenocarcinoma cell line growth inhibition [CLK]
Settings: for IC50: curve of first compound; for viability, T/C: stronger effect = lower value
Outline: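 Patient-derived tumor cells grown as complex spheroids with HUVEC endothelial cells and mesenchymal stem cells, treated with drug combinations. Concentrations descend in half-log steps from near clinical Cmax, or from 10 microM if Cmax unknown.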

[1] = second compound 0.0316 µM, first compound 0.000949 µM
[2] = second compound 0.0316 µM, first compound 0.003 µM
[3] = second compound 0.0316 µM, first compound 0.00949 µM
[4] = second compound 0.0316 µM, first compound 0.03 µM
[5] = second compound 0.0316 µM, first compound 0.0949 µM
[6] = second compound 0.0316 µM, first compound 0.3 µM
[7] = second compound 0.1 µM, first compound 0.000949 µM
[8] = second compound 0.1 µM, first compound 0.003 µM
[9] = second compound 0.1 µM, first compound 0.00949 µM
[10] = second compound 0.1 µM, first compound 0.03 µM
[11] = second compound 0.1 µM, first compound 0.0949 µM
[12] = second compound 0.1 µM, first compound 0.3 µM
[13] = second compound 0.316 µM, first compound 0.000949 µM
[14] = second compound 0.316 µM, first compound 0.003 µM
[15] = second compound 0.316 µM, first compound 0.00949 µM
[16] = second compound 0.316 µM, first compound 0.03 µM
[17] = second compound 0.316 µM, first compound 0.0949 µM
[18] = second compound 0.316 µM, first compound 0.3 µM
[19] = second compound 1 µM, first compound 0.000949 µM
[20] = second compound 1 µM, first compound 0.003 µM
[21] = second compound 1 µM, first compound 0.00949 µM
[22] = second compound 1 µM, first compound 0.03 µM
[23] = second compound 1 µM, first compound 0.0949 µM
[24] = second compound 1 µM, first compound 0.3 µM
[25] = second compound 3.16 µM, first compound 0.000949 µM
[26] = second compound 3.16 µM, first compound 0.003 µM
[27] = second compound 3.16 µM, first compound 0.00949 µM
[28] = second compound 3.16 µM, first compound 0.03 µM
[29] = second compound 3.16 µM, first compound 0.0949 µM
[30] = second compound 3.16 µM, first compound 0.3 µM
[31] = second compound 10 µM, first compound 0.000949 µM
[32] = second compound 10 µM, first compound 0.003 µM
[33] = second compound 10 µM, first compound 0.00949 µM
[34] = second compound 10 µM, first compound 0.03 µM
[35] = second compound 10 µM, first compound 0.0949 µM
[36] = second compound 10 µM, first compound 0.3 µM
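Further: spheroids exposed to agents for 7 days.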
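Wherever viability, T/C is given: 100% = DMSO vehicle wells.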

Compound: C=CC(=O)Nc1cc(Nc2nccc(-c3cn(C)c4ccccc34)n2)c(OC)cc1N(C)CCN(C)C + CN1CCN(c2cc(C(=O)Nc3cc4cc(-c5cnn(C)c5)ccc4cn3)ccn2)CC1
IC50 (second compound 0.0316 µM): > 300 nM | IC50 (second compound 0.1 µM): > 300 nM | IC50 (second compound 0.316 µM): < 0.949 nM | IC50 (second compound 1 µM): < 0.949 nM | IC50 (second compound 3.16 µM): < 0.949 nM | IC50 (second compound 10 µM): < 0.949 nM | viability, T/C [1]: 104% | viability, T/C [2]: 102% | viability, T/C [3]: 93.5% | viability, T/C [4]: 103% | viability, T/C [5]: 107% | viability, T/C [6]: 107% | viability, T/C [7]: 125% | viability, T/C [8]: 114% | viability, T/C [9]: 110% | viability, T/C [10]: 111% | viability, T/C [11]: 97.3% | viability, T/C [12]: 79.2% | viability, T/C [13]: 30.5% | viability, T/C [14]: 35.5% | viability, T/C [15]: 37% | viability, T/C [16]: 25.2% | viability, T/C [17]: 24.5% | viability, T/C [18]: 20.4% | viability, T/C [19]: 0.17% | viability, T/C [20]: 0.18% | viability, T/C [21]: 1.87% | viability, T/C [22]: 0.19% | viability, T/C [23]: 0.34% | viability, T/C [24]: 1.79% | viability, T/C [25]: 0.2% | viability, T/C [26]: 0.16% | viability, T/C [27]: 0.17% | viability, T/C [28]: 0.17% | viability, T/C [29]: 1.76% | viability, T/C [30]: 1.73% | viability, T/C [31]: 0.28% | viability, T/C [32]: 0.23% | viability, T/C [33]: 0.25% | viability, T/C [34]: 0.24% | viability, T/C [35]: 0.22% | viability, T/C [36]: 0.24%

IC50 (second compound 0.0316 µM): > 300 nM | IC50 (second compound 0.1 µM): 2.07 nM | IC50 (second compound 0.316 µM): < 0.949 nM | IC50 (second compound 1 µM): < 0.949 nM | IC50 (second compound 3.16 µM): < 0.949 nM | IC50 (second compound 10 µM): < 0.949 nM
Compound: C=CC(=O)Nc1cc(Nc2nccc(-c3cn(C)c4ccccc34)n2)c(OC)cc1N(C)CCN(C)C + CNC(=O)c1ccc(Nc2nc(OC3CCCC3)c3c(-c4ccc5nc(C)oc5c4)c[nH]c3n2)c(OC)c1
viability, T/C [1]: 94.3% | viability, T/C [2]: 87.8% | viability, T/C [3]: 90.3% | viability, T/C [4]: 89.4% | viability, T/C [5]: 98.7% | viability, T/C [6]: 95.8% | viability, T/C [7]: 52.1% | viability, T/C [8]: 51.2% | viability, T/C [9]: 42.3% | viability, T/C [10]: 36.6% | viability, T/C [11]: 40.9% | viability, T/C [12]: 28.5% | viability, T/C [13]: 43.9% | viability, T/C [14]: 37.9% | viability, T/C [15]: 39.2% | viability, T/C [16]: 36.7% | viability, T/C [17]: 31.6% | viability, T/C [18]: 25.8% | viability, T/C [19]: 43.6% | viability, T/C [20]: 41.9% | viability, T/C [21]: 39.7% | viability, T/C [22]: 39% | viability, T/C [23]: 31.8% | viability, T/C [24]: 24.4% | viability, T/C [25]: 39.3% | viability, T/C [26]: 42.8% | viability, T/C [27]: 41% | viability, T/C [28]: 34.3% | viability, T/C [29]: 28% | viability, T/C [30]: 20.1% | viability, T/C [31]: 40.1% | viability, T/C [32]: 40.7% | viability, T/C [33]: 33.8% | viability, T/C [34]: 28.8% | viability, T/C [35]: 25.8% | viability, T/C [36]: 22.7%

Compound: NC(=O)C(=Cn1cnc(-c2cc(C(F)(F)F)cc(C(F)(F)F)c2)n1)c1cncnc1 + CN1CCN(c2cc(C(=O)Nc3cc4cc(-c5cnn(C)c5)ccc4cn3)ccn2)CC1
IC50 (second compound 0.0316 µM): 220 nM | IC50 (second compound 0.1 µM): 103 nM | IC50 (second compound 0.316 µM): < 9.49 nM | IC50 (second compound 1 µM): < 9.49 nM | IC50 (second compound 3.16 µM): < 9.49 nM | IC50 (second compound 10 µM): < 9.49 nM | viability, T/C [3]: 113% | viability, T/C [4]: 114% | viability, T/C [5]: 74.5% | viability, T/C [6]: 41.2% | viability, T/C (second compound 0.0316 µM, first compound 0.949 µM): 19.1% | viability, T/C (second compound 0.0316 µM, first compound 3 µM): 9.26% | viability, T/C [9]: 104% | viability, T/C [10]: 80.3% | viability, T/C [11]: 53.4% | viability, T/C [12]: 24.4% | viability, T/C (second compound 0.1 µM, first compound 0.949 µM): 9.65% | viability, T/C (second compound 0.1 µM, first compound 3 µM): 2.06% | viability, T/C [15]: 13.1% | viability, T/C [16]: 10.7% | viability, T/C [17]: 1.47% | viability, T/C [18]: 0.24% | viability, T/C (second compound 0.316 µM, first compound 0.949 µM): 0.92% | viability, T/C (second compound 0.316 µM, first compound 3 µM): 2.69% | viability, T/C [21]: 0.11% | viability, T/C [22]: 0.13% | viability, T/C [23]: 1.63% | viability, T/C [24]: 0.1% | viability, T/C (second compound 1 µM, first compound 0.949 µM): 0.37% | viability, T/C (second compound 1 µM, first compound 3 µM): 0.09% | viability, T/C [27]: 0.08% | viability, T/C [28]: 0.11% | viability, T/C [29]: 0.16% | viability, T/C [30]: 0.13% | viability, T/C (second compound 3.16 µM, first compound 0.949 µM): 0.13% | viability, T/C (second compound 3.16 µM, first compound 3 µM): 2.73% | viability, T/C [33]: 0.1% | viability, T/C [34]: 0.13% | viability, T/C [35]: 0.41% | viability, T/C [36]: 0.23% | viability, T/C (second compound 10 µM, first compound 0.949 µM): 0.23% | viability, T/C (second compound 10 µM, first compound 3 µM): 1.29%

Compound: Nc1ccccc1NC(=O)c1ccc(CNC(=O)OCc2cccnc2)cc1 + CN1CCN(c2cc(C(=O)Nc3cc4cc(-c5cnn(C)c5)ccc4cn3)ccn2)CC1
IC50 (second compound 0.0316 µM): 4240 nM | IC50 (second compound 0.1 µM): 2540 nM | IC50 (second compound 0.316 µM): < 31.6 nM | IC50 (second compound 1 µM): < 31.6 nM | IC50 (second compound 3.16 µM): < 31.6 nM | IC50 (second compound 10 µM): < 31.6 nM | viability, T/C (second compound 0.0316 µM, first compound 0.0316 µM): 95% | viability, T/C (second compound 0.0316 µM, first compound 0.1 µM): 95.3% | viability, T/C (second compound 0.0316 µM, first compound 0.316 µM): 110% | viability, T/C (second compound 0.0316 µM, first compound 1 µM): 118% | viability, T/C (second compound 0.0316 µM, first compound 3.16 µM): 62.7% | viability, T/C (second compound 0.0316 µM, first compound 10 µM): 12.6% | viability, T/C (second compound 0.1 µM, first compound 0.0316 µM): 110% | viability, T/C (second compound 0.1 µM, first compound 0.1 µM): 123% | viability, T/C (second compound 0.1 µM, first compound 0.316 µM): 118% | viability, T/C (second compound 0.1 µM, first compound 1 µM): 119% | viability, T/C (second compound 0.1 µM, first compound 3.16 µM): 34.1% | viability, T/C (second compound 0.1 µM, first compound 10 µM): 8.04% | viability, T/C (second compound 0.316 µM, first compound 0.0316 µM): 26.6% | viability, T/C (second compound 0.316 µM, first compound 0.1 µM): 31.3% | viability, T/C (second compound 0.316 µM, first compound 0.316 µM): 20.9% | viability, T/C (second compound 0.316 µM, first compound 1 µM): 18.9% | viability, T/C (second compound 0.316 µM, first compound 3.16 µM): 3.92% | viability, T/C (second compound 0.316 µM, first compound 10 µM): 2.67% | viability, T/C (second compound 1 µM, first compound 0.0316 µM): 0.16% | viability, T/C (second compound 1 µM, first compound 0.1 µM): 0.17% | viability, T/C (second compound 1 µM, first compound 0.316 µM): 2.95% | viability, T/C (second compound 1 µM, first compound 1 µM): 0.09% | viability, T/C (second compound 1 µM, first compound 3.16 µM): 3.76% | viability, T/C (second compound 1 µM, first compound 10 µM): 3.49% | viability, T/C (second compound 3.16 µM, first compound 0.0316 µM): 0.1% | viability, T/C (second compound 3.16 µM, first compound 0.1 µM): 0.71% | viability, T/C (second compound 3.16 µM, first compound 0.316 µM): 0.63% | viability, T/C (second compound 3.16 µM, first compound 1 µM): 0.09% | viability, T/C (second compound 3.16 µM, first compound 3.16 µM): 1.87% | viability, T/C (second compound 3.16 µM, first compound 10 µM): 1.46% | viability, T/C (second compound 10 µM, first compound 0.0316 µM): 0.08% | viability, T/C (second compound 10 µM, first compound 0.1 µM): 0.52% | viability, T/C (second compound 10 µM, first compound 0.316 µM): 3.6% | viability, T/C (second compound 10 µM, first compound 1 µM): 0.17% | viability, T/C (second compound 10 µM, first compound 3.16 µM): 0.18% | viability, T/C (second compound 10 µM, first compound 10 µM): 2.22%
